The values below come from patent publication US11311542B2, “Inhibitors of cyclin dependent kinase 7 (CDK7)” (Syros Pharmaceuticals, Inc., priority 2018, dated 2022).

What is called IC50 is the point on the concentration scale where inhibition reaches its midpoint.

The subject of assay [1] is HCC70 cells. The assay is described as follows: Inhibition of cell proliferation (CyQUANT Direct), HCC70. It is filed as cell-based, human. As to conditions: Homo sapiens, HCC70, 72-hour.
The test system of assay [2] is COV318 cells. The assay is described as follows: Inhibition of cell proliferation (CyQUANT Direct), COV318. It is filed as cell-based, human. Conditions: Homo sapiens, COV318, 72-hour.
The subject of assay [3] is COV504 cells. The assay is described as follows: Inhibition of cell proliferation (CyQUANT Direct), COV504. Type of assay: cell-based, human. Conditions: Homo sapiens, COV504, 72-hour.
The test system of assay [4] is MB453 cells. Put plainly: Inhibition of cell proliferation (CyQUANT Direct), MB453. Conditions: Homo sapiens, MB453, 72-hour. Type of assay: cell-based, human.
Assay [5] has as its target CDK2/Cyclin E1 complex (Homo sapiens, UniProt P24941). The assay is described as follows: CDK2 kinase inhibition assay (Caliper/LabChip EZ Reader).
Experimental: (§1) Compounds described herein were assayed for inhibition of CDK7, CDK9, CDK12, and CDK2 activity at Biortus Biosciences (Jiangyin, Jiangsu Province, P.R. of China) using kinase assays for each CDK developed with a Caliper/LabChip EZ Reader (Perkin Elmer, Waltham, Mass.).
(§2) Furthermore, the CDK9 inhibition assay used CDK9/Cyclin T1 complex (8 nM) and “5-FAM-CDK9tide” peptide substrate (2 μM, synthesized fluorophore-labeled peptide with the following sequence: 5-FAM-GSRTPMY-NH2 (SEQ ID NO:2) where 5-FAM is defined above and NH2 signifies a C-terminal amide) with 10 mM MgCl2 in the buffer composition listed above. The CDK12 inhibition assay used CDK12 (aa686-1082)/Cyclin K complex (50 nM) and “5-FAM-CDK9tide” (2 μM) as defined above, with 2 mM MgCl2 in the buffer composition above. Additionally, the CDK2 inhibition assay used CDK2/Cyclin E1 complex (0.5 nM) and “5-FAM-CDK7tide” (2 μM; defined above) with 2 mM MgCl2 in the buffer composition above.
(§3) The incubation period at 27° C. for each CDK inhibition assay was chosen such that the fraction of phosphorylated peptide product produced in each assay, relative to the total peptide concentration, was approximately 20% (±5%) for the uninhibited kinase (35 min. for CDK7, 35 min. for CDK2, 3 hr. for CDK12, 15 min. for CDK9).
The target of assay [6] is CDK7/Cyclin H/MAT1 complex (Homo sapiens, UniProt P50613). The assay is described as follows: CDK7 kinase inhibition assay (Caliper/LabChip EZ Reader).
Chain of CDK7/Cyclin H/MAT1 complex (P50613 whole entry): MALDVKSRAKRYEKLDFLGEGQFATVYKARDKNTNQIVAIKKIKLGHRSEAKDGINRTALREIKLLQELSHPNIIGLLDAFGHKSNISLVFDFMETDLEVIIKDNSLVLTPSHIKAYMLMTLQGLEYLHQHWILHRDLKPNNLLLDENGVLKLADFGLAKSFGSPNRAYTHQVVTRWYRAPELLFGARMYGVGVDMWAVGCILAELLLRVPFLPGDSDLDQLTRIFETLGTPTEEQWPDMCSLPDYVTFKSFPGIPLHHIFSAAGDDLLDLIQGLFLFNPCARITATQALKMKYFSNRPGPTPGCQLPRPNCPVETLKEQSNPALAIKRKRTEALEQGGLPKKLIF
Chain of CDK7/Cyclin H/MAT1 complex (P51946 whole entry partner): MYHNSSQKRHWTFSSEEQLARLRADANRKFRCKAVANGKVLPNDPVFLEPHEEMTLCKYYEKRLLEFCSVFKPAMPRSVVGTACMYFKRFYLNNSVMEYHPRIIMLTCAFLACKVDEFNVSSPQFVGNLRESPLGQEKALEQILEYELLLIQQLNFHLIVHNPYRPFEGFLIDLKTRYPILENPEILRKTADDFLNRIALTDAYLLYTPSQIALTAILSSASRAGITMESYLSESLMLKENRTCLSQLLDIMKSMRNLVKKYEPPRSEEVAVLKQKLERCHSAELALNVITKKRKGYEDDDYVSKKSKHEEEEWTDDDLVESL
Chain of CDK7/Cyclin H/MAT1 complex (P51948 whole entry partner): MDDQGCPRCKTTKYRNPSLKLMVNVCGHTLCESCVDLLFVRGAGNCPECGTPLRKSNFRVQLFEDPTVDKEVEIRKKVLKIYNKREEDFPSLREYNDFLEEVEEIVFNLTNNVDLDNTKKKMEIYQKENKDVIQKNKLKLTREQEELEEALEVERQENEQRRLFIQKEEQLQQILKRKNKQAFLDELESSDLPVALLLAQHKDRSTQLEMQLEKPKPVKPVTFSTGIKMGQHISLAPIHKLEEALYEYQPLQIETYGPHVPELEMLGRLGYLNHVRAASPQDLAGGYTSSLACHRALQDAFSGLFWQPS
For assay [7], the target named is CDK9/Cyclin T1 complex (Homo sapiens, UniProt P50750). The assay is described as follows: CDK9 kinase inhibition assay (Caliper/LabChip EZ Reader).
Chain of CDK9/Cyclin T1 complex (P50750 whole entry, the tested form may be a part): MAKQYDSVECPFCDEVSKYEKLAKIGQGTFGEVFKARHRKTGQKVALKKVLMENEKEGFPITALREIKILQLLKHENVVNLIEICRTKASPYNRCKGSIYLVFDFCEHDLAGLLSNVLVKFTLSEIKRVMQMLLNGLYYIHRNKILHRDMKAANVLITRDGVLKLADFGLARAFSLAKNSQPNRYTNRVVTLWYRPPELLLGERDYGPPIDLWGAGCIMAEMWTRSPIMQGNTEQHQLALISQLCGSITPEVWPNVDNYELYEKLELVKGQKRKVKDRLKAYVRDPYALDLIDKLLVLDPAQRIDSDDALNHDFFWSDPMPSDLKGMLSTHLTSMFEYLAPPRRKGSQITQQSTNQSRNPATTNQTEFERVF
Chain of CDK9/Cyclin T1 complex (O60563 whole entry partner, the tested form may be a part): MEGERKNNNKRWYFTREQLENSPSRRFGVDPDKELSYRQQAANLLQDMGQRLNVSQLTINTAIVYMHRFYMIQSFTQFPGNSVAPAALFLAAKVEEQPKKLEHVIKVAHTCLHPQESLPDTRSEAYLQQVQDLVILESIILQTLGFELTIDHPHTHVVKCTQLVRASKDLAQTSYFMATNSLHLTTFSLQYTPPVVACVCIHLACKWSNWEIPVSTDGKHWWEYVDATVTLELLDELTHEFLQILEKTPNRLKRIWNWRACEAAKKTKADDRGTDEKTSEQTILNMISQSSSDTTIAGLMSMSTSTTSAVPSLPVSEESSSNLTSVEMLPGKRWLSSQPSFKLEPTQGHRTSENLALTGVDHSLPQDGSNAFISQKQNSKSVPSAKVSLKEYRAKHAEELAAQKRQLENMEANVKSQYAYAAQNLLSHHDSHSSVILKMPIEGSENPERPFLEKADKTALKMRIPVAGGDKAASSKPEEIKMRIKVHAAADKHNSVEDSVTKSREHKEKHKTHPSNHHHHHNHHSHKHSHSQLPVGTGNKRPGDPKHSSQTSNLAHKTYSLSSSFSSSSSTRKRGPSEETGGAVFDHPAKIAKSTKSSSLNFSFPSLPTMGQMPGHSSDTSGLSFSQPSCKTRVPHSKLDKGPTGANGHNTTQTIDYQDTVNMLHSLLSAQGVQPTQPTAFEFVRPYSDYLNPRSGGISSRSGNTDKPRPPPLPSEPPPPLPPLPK
The target of assay [8] is CDK12 (aa686-1082)/Cyclin K complex (Homo sapiens, UniProt Q9NYV4). Put plainly: CDK12 kinase inhibition assay (Caliper/LabChip EZ Reader).
Chain of CDK12 (aa686-1082)/Cyclin K complex (Q9NYV4 686-1082): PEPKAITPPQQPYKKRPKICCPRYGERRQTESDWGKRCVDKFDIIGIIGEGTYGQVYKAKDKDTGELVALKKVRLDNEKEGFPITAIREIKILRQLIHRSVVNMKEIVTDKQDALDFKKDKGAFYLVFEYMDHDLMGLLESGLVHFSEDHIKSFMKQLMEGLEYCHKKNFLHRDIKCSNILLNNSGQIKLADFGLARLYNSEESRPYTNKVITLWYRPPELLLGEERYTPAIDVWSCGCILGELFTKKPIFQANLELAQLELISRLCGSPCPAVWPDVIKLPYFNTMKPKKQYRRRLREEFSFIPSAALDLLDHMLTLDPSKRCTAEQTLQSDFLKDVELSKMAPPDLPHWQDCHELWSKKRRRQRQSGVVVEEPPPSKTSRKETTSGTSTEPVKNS
Chain of CDK12 (aa686-1082)/Cyclin K complex (O75909 whole entry partner, the tested form may be a part): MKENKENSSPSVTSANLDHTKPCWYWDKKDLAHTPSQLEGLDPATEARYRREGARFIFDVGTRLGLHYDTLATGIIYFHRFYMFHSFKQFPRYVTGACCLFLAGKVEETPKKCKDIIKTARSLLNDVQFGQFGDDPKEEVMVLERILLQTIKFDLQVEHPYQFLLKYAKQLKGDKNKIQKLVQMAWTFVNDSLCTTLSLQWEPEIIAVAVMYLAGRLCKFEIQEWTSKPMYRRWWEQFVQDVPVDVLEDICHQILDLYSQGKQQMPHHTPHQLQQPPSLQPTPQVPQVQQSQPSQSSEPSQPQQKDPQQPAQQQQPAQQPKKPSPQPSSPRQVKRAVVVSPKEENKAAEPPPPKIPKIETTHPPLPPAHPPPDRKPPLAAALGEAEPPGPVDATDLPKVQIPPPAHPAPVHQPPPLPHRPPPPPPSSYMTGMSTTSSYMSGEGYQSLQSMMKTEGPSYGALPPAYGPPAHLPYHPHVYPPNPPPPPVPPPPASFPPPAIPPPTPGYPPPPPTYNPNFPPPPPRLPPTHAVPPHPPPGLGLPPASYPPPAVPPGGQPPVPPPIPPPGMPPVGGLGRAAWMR
Experimental: as §1, §2, §3

For `Cc1noc(-c2ccc3c(-c4nc(N[C@H]5CCCNC5)ncc4C(F)(F)F)c[nH]c3n2)n1` [Compound 136, 4-[6-(3-methyl-1,2,4-oxadiazol-5-yl)-1H-pyrrolo[2,3-b]pyridin-3-yl]-N-[(3S)-3-piperidyl]-5-(trifluoromethyl)pyrimidin-2-amine], the IC50 is below 100 nM in assay [1]; above 1000 nM in assay [2]; below 100 nM in assay [3]; below 100 nM in assay [4]; above 500 nM in assay [5]; below 30 nM in assay [6]. Moreover, the IC50 in assay [7] and in assay [8] was above 500 nM throughout.
`CC1(C)CNC[C@@H](Nc2ncc(C(F)(F)F)c(-c3c[nH]c4nc(-c5nccs5)ccc34)n2)C1` [Compound 137, N-[(3S)-5,5-dimethyl-3-piperidyl]-4-(6-thiazol-2-yl-1H-pyrrolo[2,3-b]pyridin-3-yl)-5-(trifluoromethyl)pyrimidin-2-amine]: the half-inhibitory concentration (IC50) was below 100 nM in assay [1]; below 100 nM in assay [2]; below 100 nM in assay [3]; below 100 nM in assay [4]; above 500 nM in assay [5]; below 30 nM in assay [6]. Moreover, the 50% inhibitory concentration (IC50) in assay [7] and in assay [8] was above 500 nM each time.
Take `Cc1nc(-c2ccc3c(-c4nc(N[C@H]5CCCNC5)ncc4C(F)(F)F)c[nH]c3n2)no1` [Compound 139, 4-[6-(5-methyl-1,2,4-oxadiazol-3-yl)-1H-pyrrolo[2,3-b]pyridin-3-yl]-N-[(3S)-3-piperidyl]-5-(trifluoromethyl)pyrimidin-2-amine]: the IC50 in assay [1] is below 100 nM; in assay [2], above 1000 nM; in assay [3], below 100 nM; in assay [4] it was below 100 nM; in assay [5], above 500 nM; in assay [6], below 30 nM. Further, the concentration for half-maximal inhibition (IC50) in assay [7] and in assay [8] was above 500 nM in each case.
In the case of `Cc1nnc(C)n1-c1ccc2c(-c3nc(N[C@H]4CCCNC4)ncc3C(F)(F)F)c[nH]c2n1` [Compound 140, 4-[6-(3,5-dimethyl-1,2,4-triazol-4-yl)-1H-pyrrolo[2,3-b]pyridin-3-yl]-N-[(3S)-3-piperidyl]-5-(trifluoromethyl)pyrimidin-2-amine], the half-inhibitory concentration (IC50) was above 1000 nM in assay [1]; above 1000 nM in assay [2]; 100 to 500 nM in assay [3]; 500 to 1000 nM in assay [4]; above 500 nM in assay [5]; below 30 nM in assay [6]. Besides, the concentration for half-maximal inhibition (IC50) in assay [7] and in assay [8] was above 500 nM in each case.
On to `Cc1nnnn1-c1ccc2c(-c3nc(N[C@H]4CCCNC4)ncc3C(F)(F)F)c[nH]c2n1` [Compound 141, 4-[6-(5-methyltetrazol-1-yl)-1H-pyrrolo[2,3-b]pyridin-3-yl]-N-[(3S)-3-piperidyl]-5-(trifluoromethyl)pyrimidin-2-amine], for which the IC50 in assay [1] was 100 to 500 nM; in assay [2], 100 to 500 nM; in assay [3] it was below 100 nM; in assay [4], 100 to 500 nM; in assay [5], above 500 nM; in assay [6] it was below 30 nM. The half-maximal inhibitory concentration (IC50) in assay [7] and in assay [8] was above 500 nM each time.
Take `Cc1nsc(-c2ccc3c(-c4nc(N[C@H]5CCCNC5)ncc4C(F)(F)F)c[nH]c3n2)n1` [Compound 142]: the concentration for half-maximal inhibition (IC50) in assay [1] is below 100 nM; in assay [2], 500 to 1000 nM; in assay [3], below 100 nM; in assay [4] it was below 100 nM; in assay [5], above 500 nM; in assay [6] it was below 30 nM. Moreover, the IC50 in assay [7] and in assay [8] was above 500 nM in each case.
As for `Cc1noc(C)c1-c1ccc2c(-c3nc(N[C@H]4CCC(C)(C)NC4)ncc3C(F)(F)F)n[nH]c2n1` [Compound 144], the half-inhibitory concentration (IC50) was below 100 nM in assay [1]; above 1000 nM in assay [2]; below 100 nM in assay [3]; below 100 nM in assay [4]; above 500 nM in assay [5]; below 30 nM in assay [6]. For the same compound, the IC50 in assay [7] and in assay [8] was above 500 nM each time.
`CNC(=O)[C@H]1CNC[C@@H](Nc2ncc(C(F)(F)F)c(-c3c[nH]c4nc(-c5nccs5)ccc34)n2)C1` [Compound 145, (3R, 5S)—N-methyl-5-[[4-(6-thiazol-2-yl-1H-pyrrolo[2,3-b]pyridin-3-yl)-5-(trifluoromethyl)pyrimidin-2-yl]amino]piperidine-3-carboxamide]: the half-maximal inhibitory concentration (IC50) was 100 to 500 nM in assay [1]; above 1000 nM in assay [2]; 100 to 500 nM in assay [3]; 100 to 500 nM in assay [4]; above 500 nM in assay [5]; below 30 nM in assay [6]. In addition, the half-inhibitory concentration (IC50) in assay [7] and in assay [8] was above 500 nM throughout.
As to `Cc1noc(C)c1-c1ccc2c(-c3nc(N[C@@H]4CNC[C@H](O)C4)ncc3C(F)(F)F)n[nH]c2n1` [Compound 146, (3R, 5S)-5-[[4-[6-(3,5-dimethylisoxazol-4-yl)-1H-pyrazolo[3,4-b]pyridin-3-yl]-5-(trifluoromethyl)pyrimidin-2-yl]amino]piperidin-3-ol], the half-inhibitory concentration (IC50) in assay [1] is 500 to 1000 nM; in assay [2] it was above 1000 nM; in assay [3], 100 to 500 nM; in assay [4], 100 to 500 nM; in assay [5], above 500 nM; in assay [6], below 30 nM. The half-inhibitory concentration (IC50) in assay [7] and in assay [8] was above 500 nM throughout.
In the case of `Cc1nocc1-c1ccc2c(-c3nc(N[C@@H]4CNC[C@H](O)C4)ncc3C(F)(F)F)c[nH]c2n1` [Compound 148, (3R,5S)-5-[[4-[6-(3-methylisoxazol-4-yl)-1H-pyrrolo[2,3-b]pyridin-3-yl]-5-(trifluoromethyl)pyrimidin-2-yl]amino]piperidin-3-ol], the half-maximal inhibitory concentration (IC50) in assay [1] was above 1000 nM; in assay [2] it was above 1000 nM; in assay [3] it was 500 to 1000 nM; in assay [4], 100 to 500 nM; in assay [5] it was above 500 nM; in assay [6], below 30 nM. In addition, the IC50 in assay [7] and in assay [8] was above 500 nM in each case.
For `Cc1nscc1-c1ccc2c(-c3nc(N[C@H]4CCCNC4)ncc3C(F)(F)F)c[nH]c2n1` [Compound 149], the concentration for half-maximal inhibition (IC50) in assay [1] was below 100 nM; in assay [2], below 100 nM; in assay [3], below 100 nM; in assay [4], below 100 nM; in assay [5] it was above 500 nM; in assay [6], below 30 nM. The IC50 in assay [7] and in assay [8] was above 500 nM in each case.
For `C[C@H]1CC[C@H](Nc2ncc(C(F)(F)F)c(-c3c[nH]c4nc(-c5cnnn5C)ccc34)n2)CN1` [Compound 150, N-[(3S,6S)-6-methyl-3-piperidyl]-4-[6-(3-methyltriazol-4-yl)-1H-pyrrolo[2,3-b]pyridin-3-yl]-5-(trifluoromethyl)pyrimidin-2-amine], the concentration for half-maximal inhibition (IC50) in assay [1] was 100 to 500 nM; in assay [2] it was 100 to 500 nM; in assay [3] it was below 100 nM; in assay [4], below 100 nM; in assay [5], above 500 nM; in assay [6] it was below 30 nM. Moreover, the concentration for half-maximal inhibition (IC50) in assay [7] and in assay [8] was above 500 nM in each case.
Take `C[C@@H]1CC[C@@H](Nc2ncc(C(F)(F)F)c(-c3c[nH]c4nc(-c5cnnn5C)ccc34)n2)CN1` [Compound 151, N-[(3R,6R)-6-methyl-3-piperidyl]-4-[6-(3-methyltriazol-4-yl)-1H-pyrrolo[2,3-b]pyridin-3-yl]-5-(trifluoromethyl)pyrimidin-2-amine]: the IC50 in assay [1] was above 1000 nM; in assay [2], above 1000 nM; in assay [3], above 1000 nM; in assay [4], 500 to 1000 nM; in assay [5] it was above 500 nM; in assay [6] it was below 30 nM. Moreover, the concentration for half-maximal inhibition (IC50) in assay [7] and in assay [8] was above 500 nM each time.
With `Cc1noc(C)c1-c1ccc2c(-c3nc(N[C@@H]4CC[C@@H](C)NC4)ncc3C(F)(F)F)n[nH]c2n1` [Compound 153, 4-[6-(3,5-dimethylisoxazol-4-yl)-1H-pyrazolo[3,4-b]pyridin-3-yl]-N-[(3R,6R)-6-methyl-3-piperidyl]-5-(trifluoromethyl)pyrimidin-2-amine], the half-maximal inhibitory concentration (IC50) in assay [1] was below 100 nM; in assay [2], below 100 nM; in assay [3] it was below 100 nM; in assay [4] it was below 100 nM; in assay [5], above 500 nM; in assay [6], below 30 nM. The IC50 in assay [7] and in assay [8] was above 500 nM each time.
Turning to `Cc1nnc(-c2ccc3c(-c4nc(N[C@H]5CC[C@H](C)NC5)ncc4C(F)(F)F)c[nH]c3n2)s1` [Compound 154, N-[(3S,6S)-6-methyl-3-piperidyl]-4-[6-(5-methyl-1,3,4-thiadiazol-2-yl)-1H-pyrrolo[2,3-b]pyridin-3-yl]-5-(trifluoromethyl)pyrimidin-2-amine], the concentration for half-maximal inhibition (IC50) in assay [1] is 100 to 500 nM; in assay [2], above 1000 nM; in assay [3], 100 to 500 nM; in assay [4] it was above 1000 nM; in assay [5] it was above 500 nM; in assay [6], below 30 nM. Further, the IC50 in assay [7] and in assay [8] was above 500 nM each time.
With `Cc1nnc(-c2ccc3c(-c4nc(N[C@H]5CCCNC5)ncc4C(F)(F)F)c[nH]c3n2)s1` [Compound 155, 4-[6-(5-methyl-1,3,4-thiadiazol-2-yl)-1H-pyrrolo[2,3-b]pyridin-3-yl]-N-[(3S)-3-piperidyl]-5-(trifluoromethyl)pyrimidin-2-amine], the 50% inhibitory concentration (IC50) in assay [1] was below 100 nM; in assay [2] it was below 100 nM; in assay [3] it was below 100 nM; in assay [4], below 100 nM; in assay [5] it was above 500 nM; in assay [6], below 30 nM. The IC50 in assay [7] and in assay [8] was above 500 nM throughout.
